Structures are written as SMILES.

Experimental findings from US20060046972A1, “Cytotoxic nucleoside analog compound 003 for treating cancer” (Parker Hughes Institute, priority 2004, published 2006) are described below.

One data set has as its system MOLT-3, human T lymphoma. As to the kind of experiment: DNA flow cytometry of cell cycle arrest, MOLT-3. The format is cell-based. The note with it: 100 μM, 48 hour. As to the method:
(§1) Exponentially growing tumor cells were cultured at 1×10^6 cells/ml in clonogenic medium (RPMI 1640 medium +1% penicillin/streptomycin +10% heat-inactivated fetal bovine serum, 2 mML-glutamine, and 10 mM Hepes buffer) in the presence or absence of 100 μM compound 003 for 48 hour at 37° C., 5% CO2. At 48 h, cells were washed two times in fresh clonogenic medium, trypsinized, fixed in ice cold ethanol and labeled with propidium iodide to quantify their DNA content, as described previously (See, for example, Navara, et al., 2001, Anticancer Drugs. 12:369). Quantitative DNA analysis was performed on a Becton Dickenson Calibur flow cytometer equipped with a Consort 40 computer using the COTFIT program, which includes CELLCY, a cell cycle distribution function that fits DNA content histograms and calculates-the percentages of cells in G, S, and GM phases of the cell cycle, as described, for example, in Uckun et al., 1996, J Biol Chem. 271, 6389.
(In flow cytometry, cells or beads pass a laser one at a time.)

For data set [1], the system named is human pre-B acute lymphoblastic leukemia (NALM-6). As to the kind of experiment: DNA flow cytometry of cell cycle arrest, NALM-6. The data set is classed as cell-based. The note with it: 100 μM, 48 hour. As to the method:
as §1

Data set [2] concerns MMTV/Neu transgenic mice (spontaneous breast cancer). Kind of data set: Murine model of Her2 positive breast cancer, virgin MMTV/Neu transgenic mice. The data set is classed as in vivo. From the text: Overexpression of the wild type Neu in the mammary glands of transgenic mice induces metastatic breast cancer. Accordingly, in the MMTV/Neu transgenic strain, the wild-type neu is overexpressed in the mammary gland under the control of the MMTV long terminal repeat. This animal model has been used to analyze the Her2/neu overexpression in breast epithelia, as well as the efficacy of new therapeutic approaches to prevent or treat Her2/neu overexpressing malignancies.
MMTV/Neu transgenic mice were treated with Compound 003 that was added to the daily food of the mice at an average daily dose level of 50 mg/kg/day for the duration of the experiment. Mice were screened for the tumor formation every other day. Tumor-free survival was analyzed using life table statistics as previously reported. The protective anti-cancer activity of Compound 003 was evaluated according to the rise of the survival rate and prolongation of the tumor-free survival of the experimental animals as compared with the control animals. Statistical Significance was determined using the Kaplan Meier Log-Rank test.
Neu transgenic mice were mated to FVB non-transgenic mice, and heterozygous neu transgenic offspring were identified by PCR analysis. A total of 62 female neu transgenic mice were identified from the offspring. These transgenic mice were used to examine the effects of a nontoxic dose level of Compound 003 (50 mg/kg/day) on spontaneous breast cancer development in two independent experiments.
In the first experiment, 30 virgin transgenic mice were used. Treatments were initiated when female mice were 6 weeks of age. Fifteen of the 15 vehicle treated control transgenic mice developed breast cancer with a median cancer-free survival time of 224 days (Mean=253±23 days) (FIG. 7, FIG. 8A&B). At 340 days, only 20% of the mice were tumor-free and by 480 days all had developed breast cancer. The mammary gland tumors were excised, paraffin-embedded and sectioned for H+E staining. A representative tumor section from a neu transgenic mouse is shown in panel C of FIG. 8. […]

The subject of the next data set is BT20 cells. Kind of data set: Cellular uptake of Compound 003. The format is in vitro ADME, human. The note with it: 50 μM, 1 hr. An excerpt:
Intracellular metabolism of Compound 003 was studied in CEM T-lineage lymphoma cell line, BT20 breast cancer cell line, T98 glioblastoma cell line, and Nalm-6 B-lineage leukemia cell line. CEM and Nalm6 cells were maintained in RPMI supplemented with 10% fetal bovine serum, and 1% penicillin/streptomycin. BT20 and T98 cells w.ere cultured in a medium composed of MEM, 10% fetal bovine serum, 0.1-mM of nonessential amino acids and Earles salts, and 1% penicillin/streptomycin. CEM and Nalm6 cells at a density of 10^6 cells per ml were utilized in the drug metabolism study. BT20 and T98 cells were seeded in 6-cm petri-dishes at 4 million cells and 2 million cells per plate, respectively, the day before the experiment. Either one plate of adherent cells or 10 million non-adherent cells was utilized at each time point. Cells were incubated with various concentrations of the compounds up to 24 hrs at 37° C. After incubation, cells were washed 2 times with ice-cold PBS, and extracted by addition of 0.5-1 ml of 60% methanol. […] With efflux experiments, cells 1×10^6/mL (the same density as in the uptake study) were incubated with 100 μM Compound 003 for 1 hr, washed 2 times with ice-cold PBS, and resuspended with culture medium without drug, and the metabolite efflux from cells to the medium was measured after 6 hr of incubation.

Regarding `COC(=O)C(C)NP(=O)(OCC1OC(n2cc(C)c(=O)[nH]c2=O)CC1N=[N+]=[N-])Oc1ccc(OC)cc1` (stereo not drawn) [Compound 003, 3′-azidothymidine 5′-[p-methoxyphenylmethoxyalaninyl phosphate]], the cell cycle arrest entry is reported as “caused G2 arrest” in the data set with MOLT-3, human T lymphoma and “G2M cell cycle arrest” in data set [1]. The compound also showed a median cancer-free survival in data set [2] (50 mg/kg/day in food, vehicle 224 days, P=0.0007) of 455 days. In data set [2] (50 mg/kg/day, at 340 days, vehicle 20±10%), the “proportion of mice cancer-free” value is 93±7%. In data set [2] (50 mg/kg/day, at 480 days, when all vehicle mice had breast cancer), the “proportion of mice still cancer-free” value is reported as “one third”. The “uptake of Compound 003, BT20 relative to Nalm6 and CEM cells” value with BT20 cells is “about 2 fold”.
